Data taken from patent US20030187056A1, “Live cell procedures to identify to identify compounds modulating intracellular distribution of phosphodiesterase( pde) enzymes” (priority 2000, published 2003).
Where two headings read alike, the source gives them in different places.

How the values were obtained:
PDE3 = PDE3 inhibition (literature values, PDE3/PDE4 specificity); type: biochemical; settings: measure of specificity
Source text: These compounds are termed specific to PDE4, since they inhibit other PDEs either weakly or not at all. The inverse ratio between IC50 of a compound to PDE4s versus its inhibition of other cAMP-degrading PDEs, such as PDE3s is often used as a measure of specificity.

HSPDE4A4-EGFP = molecular target: T1, HSPDE4A4-EGFP (Homo sapiens, UniProt P27815); assay: Spot formation in CHO cells transfected with HSPDE4A4-EGFP; type: cell-based; settings: for cells with spots: clonal
T1 construct: expressed in transfected cells

HSPDE4A4catD-EGFP = molecular target: T2, HSPDE4A4catD-EGFP (Homo sapiens, UniProt P27815+Q08499); type: cell-based
T2 construct: the 3′-end catalytic region of HSPDE4D isoforms (nucleotides 700-2019 of HSPDE4D3 cDNA); HSPDE4A4 N-terminal fragment (nucleotides 1-1023 of L20965); expressed in transfected cells
Source text: Transiently transfected or stably transfected (non-clonal) cells are allowed to adhere to chambered coverglasses in HAM's F12 medium containing 10% FBS.

PDE4A probes = assay: Redistribution of the PDE4A probes (summary); type: cell-based; settings: compound alone
HSPDE4A4-H506N-EGFP = molecular target: T3, HSPDE4A4-H506N-EGFP (Homo sapiens, UniProt P27815, H506N); assay: Spot formation in CHO cells transfected with HSPDE4A4-H506N-EGFP; type: cell-based; settings: clonal CHO, 23.5 hours
T3 construct: expressed in transfected cells
Procedure: (§1) The cells are then fixed with 4% formaldehyde buffer (pH7) for 1 hour, washed with PBS and stained with 1 μM Hoechst 33258 in PBS for 10 minutes at 25° C., then washed twice in PBS. Automated images are collected and analysed for the number of spots per cell as described in Example 2.
as §1, with “Cells are grown in HAM's F12 medium plus 10% FBS plus various concentrations of inhibitors for 23.5 hours. The” for “The”

PDE4 [1] = test system: T4, PDE4; settings: Saldou et al., 1998; read-out: IC50 against PDE4; cited from earlier work
T4 construct: other: Saldou et al., 1998; Such an enzyme preparation may be obtained from cells transfected with and expressing the PDE4 enzyme chosen

PDE4 [2] = settings: cited from earlier work

T1 sequence (P27815 whole entry): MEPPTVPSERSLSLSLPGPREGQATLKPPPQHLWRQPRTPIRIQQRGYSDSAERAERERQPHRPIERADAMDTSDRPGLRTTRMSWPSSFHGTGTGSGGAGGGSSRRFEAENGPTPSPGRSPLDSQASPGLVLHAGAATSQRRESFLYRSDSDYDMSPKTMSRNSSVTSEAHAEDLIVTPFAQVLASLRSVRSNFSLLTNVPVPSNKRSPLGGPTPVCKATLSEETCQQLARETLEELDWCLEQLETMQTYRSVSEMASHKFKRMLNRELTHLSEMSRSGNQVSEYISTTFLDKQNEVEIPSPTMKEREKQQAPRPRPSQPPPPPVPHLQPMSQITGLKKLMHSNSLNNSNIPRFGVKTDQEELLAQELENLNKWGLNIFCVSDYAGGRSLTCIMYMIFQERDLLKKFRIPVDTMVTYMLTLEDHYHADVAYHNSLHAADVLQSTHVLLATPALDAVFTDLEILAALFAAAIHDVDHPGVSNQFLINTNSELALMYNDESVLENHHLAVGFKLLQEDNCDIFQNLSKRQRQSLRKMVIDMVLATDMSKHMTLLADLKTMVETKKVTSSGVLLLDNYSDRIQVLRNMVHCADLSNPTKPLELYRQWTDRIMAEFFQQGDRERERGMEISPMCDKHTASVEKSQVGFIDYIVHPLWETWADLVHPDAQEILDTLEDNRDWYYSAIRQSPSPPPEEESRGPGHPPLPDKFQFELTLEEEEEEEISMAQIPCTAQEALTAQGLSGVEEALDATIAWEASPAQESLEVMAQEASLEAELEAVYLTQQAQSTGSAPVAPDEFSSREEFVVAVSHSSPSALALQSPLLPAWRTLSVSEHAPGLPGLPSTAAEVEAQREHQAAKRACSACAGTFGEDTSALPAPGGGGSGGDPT
T2 sequence (P27815+Q08499 fused with the stated changes, form open): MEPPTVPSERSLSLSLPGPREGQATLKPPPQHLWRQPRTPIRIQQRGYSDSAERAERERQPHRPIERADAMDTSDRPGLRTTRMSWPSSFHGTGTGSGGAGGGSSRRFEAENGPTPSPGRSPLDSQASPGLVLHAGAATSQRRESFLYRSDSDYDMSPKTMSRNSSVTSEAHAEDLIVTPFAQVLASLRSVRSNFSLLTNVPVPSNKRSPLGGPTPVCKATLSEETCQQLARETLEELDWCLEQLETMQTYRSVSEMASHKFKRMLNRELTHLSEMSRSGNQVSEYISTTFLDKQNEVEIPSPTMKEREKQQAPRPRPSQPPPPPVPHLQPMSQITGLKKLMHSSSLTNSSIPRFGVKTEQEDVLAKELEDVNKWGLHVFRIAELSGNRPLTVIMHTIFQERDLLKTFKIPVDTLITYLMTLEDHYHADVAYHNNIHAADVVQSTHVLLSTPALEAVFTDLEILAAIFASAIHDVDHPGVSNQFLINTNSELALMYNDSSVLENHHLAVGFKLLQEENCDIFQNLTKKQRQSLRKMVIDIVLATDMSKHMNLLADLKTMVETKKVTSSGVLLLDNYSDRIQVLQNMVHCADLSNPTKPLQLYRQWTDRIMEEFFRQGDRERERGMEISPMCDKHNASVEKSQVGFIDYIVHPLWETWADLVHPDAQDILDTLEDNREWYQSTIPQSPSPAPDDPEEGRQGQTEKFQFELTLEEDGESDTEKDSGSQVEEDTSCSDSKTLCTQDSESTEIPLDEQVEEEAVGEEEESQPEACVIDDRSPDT
T3 sequence (P27815 whole entry H506N): as the sequence (P27815 whole entry) above, with H506N counted along it

What does the source list for O=c1c2cccnc2n(-c2cccc([N+](=O)[O-])c2)c(=O)n1Cc1ccncc1 [RS25344]?
(IC50 PDE3)/(IC50 PDE4) (PDE3): 1,170,000; cells with spots (HSPDE4A4-EGFP; 0.03 μM RS25344, 24.5 hours): about 40%; cells with spots (HSPDE4A4-EGFP; 0.03 μM RS25344, 24.5 hours, listed as RS 25344): approximately 40%; cells with spots (HSPDE4A4-EGFP; 1 μM RS25344, 24.5 hours): more than 95%; EC50 (HSPDE4A4-EGFP; clonal CHO, 23.5 hours, 4-parameter Hill fit, read-out: EC50 spot formation (spots per cell)): 17 nM; Formation of PDE4A4 spots (HSPDE4A4-EGFP; yes/no): yes; spot formation (in words) (HSPDE4A4catD-EGFP; 1 μM RS25344 32 hours, stably transfected, 10 μM Rolipram 26 hours, transiently transfected): Many cells in this stable population respond by forming pairs of bright spots; time until spots begin to be visible (HSPDE4A4catD-EGFP; after addition of 1 μM RS25344): about 6 hours; redistribution of the PDE4A probes (PDE4A probes): indistinguishable from those induced by Rolipram treatment; EC50 (HSPDE4A4-H506N-EGFP): 125 nM; IC50 (PDE4 [1]): 0.28 nM; IC50 (PDE4 [2]; literature values quoted in Example 5 (Saldou 1998; Ahluwalia 1982; Rubin 1991), read-out: IC50 against PDE4): 0.28 nM; Inhibition of PDE4 catalytic activity (PDE4 [2]; yes/no): yes
